PubChem BioAssay AID1259321 (Sanford-Burnham Center for Chemical Genomics, 2017)
Active and inactive are the calls of the source.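 How the source made its calls: active means half-maximal concentration for changing protein binding to DNA, from the fitted dose curve, below 10 micromolar; inactive means the rest.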

target: Nuclear receptor subfamily 1 group D member 1 (Homo sapiens) (UniProt P20393); test: Rev-erbα–DNA interaction modulators – biochemical, FITC-DNA, fluorescence polarization, dose response (AID 1259321); conditions: Rev-erb alpha-FITC-DNA binding
Sequence (P20393 whole entry, looked up): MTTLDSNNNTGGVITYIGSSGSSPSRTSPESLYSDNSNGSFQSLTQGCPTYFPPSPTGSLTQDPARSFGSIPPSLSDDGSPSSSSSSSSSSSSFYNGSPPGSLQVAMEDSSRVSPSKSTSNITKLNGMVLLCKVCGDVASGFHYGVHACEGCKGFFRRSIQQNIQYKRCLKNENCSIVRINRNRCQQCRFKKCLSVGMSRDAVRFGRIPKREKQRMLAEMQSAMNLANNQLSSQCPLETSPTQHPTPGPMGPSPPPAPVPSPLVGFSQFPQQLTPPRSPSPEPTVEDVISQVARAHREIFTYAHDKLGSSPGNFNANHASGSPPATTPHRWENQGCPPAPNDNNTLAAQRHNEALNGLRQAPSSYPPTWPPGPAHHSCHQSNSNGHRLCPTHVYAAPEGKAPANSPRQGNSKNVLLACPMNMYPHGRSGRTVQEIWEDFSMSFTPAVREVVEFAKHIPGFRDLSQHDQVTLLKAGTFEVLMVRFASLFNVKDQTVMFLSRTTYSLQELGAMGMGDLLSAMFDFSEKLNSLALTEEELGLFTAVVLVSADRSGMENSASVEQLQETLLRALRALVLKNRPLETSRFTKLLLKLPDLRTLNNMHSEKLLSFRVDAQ

| Structure (SMILES) | IC50 |
| --- | --- |
| COc1ccc(Cn2ccc3ccc(-c4ccc5ccn(C(=O)c6ccc(C)cc6)c5c4)cc32)cc1 | > 40 µM (inactive) |
| O=C(CSc1ncnc2c1oc1ccccc12)Nc1cccc(Cl)c1 | 4.59 µM |
| CCOCCCn1c(=S)[nH]c2cc(C(=O)NCCc3ccccc3)ccc2c1=O | 3.56 µM |
| COc1ccc(-n2ncc3c(N4CCc5ccccc54)ncnc32)cc1 | 8.26 µM |
| CCc1cc2cc(C)cc(C)c2nc1SCC(=O)N1CCCC1 | > 40 µM (inactive) |
| Cc1cc(C)c2cc(C#N)c(SCC(=O)Nc3cc(C)on3)nc2c1 | 7.32 µM |
| CCOc1ccccc1NC(=O)c1cnc2n(c1=O)CCS2 | > 40 µM (inactive) |
| COc1cccc(C(=O)Nc2ccc(-c3nc4ccccc4o3)c(O)c2)c1 | > 40 µM (inactive) |
| CC(=O)OCC1OC(n2c(-c3ccc(Cl)cc3)ccc(C#N)c2=S)C(OC(C)=O)C(OC(C)=O)C1OC(C)=O (centres undefined) | inactive |
| O=c1[nH]c(Cc2ccc(F)cc2)nc2scc(-c3ccc(F)cc3)c12 | 9.5 µM |
| CCC(=O)c1cn(CC(=O)Nc2cccc(C)c2)c2ccccc12 | > 40 µM (inactive) |
| COc1ccccc1C(=O)Nc1nc2ccccc2s1 | 5.23 µM |
| Cc1sc2nc(N3CCOCC3)[nH]c(=O)c2c1-c1ccccc1 | 7.66 µM |
| Cc1c(-c2ccc(F)cc2)nc(N)c(C#N)c1-c1cccs1 | 1.77 µM |
| Oc1ccc(Br)cc1C1Nc2ccccc2S1 (centres undefined) | 6.22 µM |
| CC(=O)c1ccc(NC(=O)COC(=O)c2ccccc2Sc2ccccc2C#N)cc1 | > 40 µM (inactive) |
| CCOC(=O)c1c(NC(=O)C2CCCN(S(=O)(=O)c3ccccc3)C2)sc2c1CCCC2 (centres undefined) | 3.46 µM |
| COc1ccc(-n2c(SCC(=O)NC3CCCCC3)nc3ccsc3c2=O)cc1 | 5.08 µM |
| COc1ccc(C(C)=O)cc1CSc1nc2ccccc2c(=O)n1-c1cccc(C)c1 | 2.17 µM |
| Cc1cc(C)c2nc(SCC(=O)Nc3ccccc3N3CCOCC3)c(C#N)cc2c1 | 6.99 µM |
| O=C(CSc1nc2ccccc2c(=O)n1-c1ccc(F)cc1)Nc1ccc(Cl)c(S(=O)(=O)N2CCOCC2)c1 | 2.38 µM |
| Fc1ccc2nc(Nc3nc4c(F)cc(F)cc4s3)sc2c1 | 7.05 µM |
| COc1ccc(NC(=O)NNC(=O)COc2ccc3cc(Br)ccc3c2)cc1OC | 8.29 µM |
| COC(=O)Cn1cc(/C=C/c2cc[n+](C)cc2)c2ccccc21 | inactive |
| O=C(Cc1ccc(Cl)cc1)c1c[nH]c(C(=O)NCc2cccnc2)c1 | 2.51 µM |
| Cc1nc(SCC(=O)NCCc2ccccc2)c2oc3ccccc3c2n1 | 4.25 µM |

| Structure (SMILES) | IC50 |
| --- | --- |
| CCCN=C(C)c1c(-c2ccccc2)[nH]n(-c2nc3ccccc3s2)c1=O | 0.917 µM |
| COC(=O)c1sc2nc3c(cc2c1N)C(=O)CC(C)(C)C3 | inactive |
| O=C(CSc1ncnc2c1oc1ccccc12)Nc1cccc(F)c1 | 2.51 µM |
| Cc1cc2nc3c(=O)n(CCc4ccccc4)c(=O)[nH]c3nc2cc1N | > 40 µM (inactive) |
| O=C(CSc1ncnc2c1oc1ccccc12)c1cccs1 | 6.36 µM |
| CCOC(=O)c1sc(NC(=O)c2ccc(S(=O)(=O)N(C)C)cc2)nc1C | inactive |
| COc1cc(OC)cc(-n2c3nc4ccccc4nc3c3c(=O)n(CC4CCCO4)cnc32)c1 (centres undefined) | 4.12 µM |
| O=C(CSc1ncnc2c1oc1ccccc12)Nc1ccccc1F | 7.81 µM |
| Cc1sc2nc(SC(C)C)nc(N)c2c1C | 3.72 µM |
| CCOc1ccc(NC(=O)CSc2nc(C3CC3)nc3ccccc23)cc1 | 5.32 µM |
| Cc1ccc2nc(SCC(=O)Nc3ccc4sc(C)nc4c3)c(C#N)cc2c1 | > 40 µM (inactive) |
| CCOC(=O)c1c(NC(=O)CSc2nc3ccccc3s2)sc(C(C)=O)c1C | inactive |
| Cc1cc(OC(C)C(=O)NCc2ccccn2)c2c(C)c(Cc3ccccc3)c(=O)oc2c1 (centres undefined) | 2.52 µM |
| COc1cccc(-c2nc(CS(=O)(=O)CC(=O)NCCCc3ccccc3)c(C)o2)c1 | 7.77 µM |
| CN1C(=O)c2cc(NC(=O)Nc3ccccc3)ccc2OC[C@H]2O[C@@H](CC(=O)NC3CCC3)CC[C@@H]21 | inactive |
| COC(=O)c1cccc(Cn2ccc3ccc(-c4ccc5ccn(C(=O)C6CCCCC6)c5c4)cc32)c1 | 7.14 µM |
| Cc1ccc(-c2nc3c(c(=O)c4ccccc4n3C)c(=O)n2-c2ccc(F)cc2)cc1 | > 40 µM (inactive) |
| O=C(COc1ncnc2c(Cl)cc(Cl)cc12)NC1CCCCCC1 | 0.847 µM |
| Cc1ccc(NC(=O)CSc2nc3ncc(Br)cc3[nH]2)cc1C | > 40 µM (inactive) |
| O=C(COC(=O)c1ccccc1SCC(=O)NC1CCCCC1)NC1CCCCC1 | 4.78 µM |
| COC(=O)c1ccccc1NC(=O)c1cn(-c2ccc(C)c(C)c2)c(=O)c2ccccc12 | inactive |
| Cc1cc(C)n2nc(-c3ccc(Cl)cc3)cc2n1 | 1.64 µM |
| COc1ccc(NC(=O)c2sc3cc(C(F)(F)F)cnc3c2-c2cccs2)cc1 | > 40 µM (inactive) |
| Cc1cc(C(C)c2ccccc2)c(O)c(CN2CCOCC2)c1C (centres undefined) | inactive |
| CCN1/C(=C/c2ccc3cc(C)ccc3[n+]2CC)Sc2ccccc21 | > 40 µM (inactive) |
| N#Cc1c(-c2ccc(F)cc2)cc(C2CC2)nc1SCC(=O)c1cccs1 | > 40 µM (inactive) |

| Structure (SMILES) | IC50 |
| --- | --- |
| CC1CC1C(=O)Nc1nc(-c2cccs2)c(-c2cccs2)s1 (centres undefined) | 5.22 µM |
| O=C(CSc1nnc2scc(-c3ccccc3)n12)Nc1nsc(-c2ccccc2)n1 | > 40 µM (inactive) |
| Cc1ccc(-n2c(SCC(=O)NCc3ccco3)nc3sc4c(c3c2=O)CC(C)(C)SC4)cc1 | 1.93 µM |
| COc1ccc(NC(=O)/C(C#N)=C\c2ccc(N3CCOCC3)o2)cc1 | > 40 µM (inactive) |
| C=CCNc1nc(NCc2ccc(NC(C)=O)cc2)c2sc(-c3ccccc3)cc2n1 | 5.43 µM |
| CCN(CC)S(=O)(=O)c1ccc(C(=O)OCCN2C(=O)c3cccc4c(N5CCOCC5)ccc(c34)C2=O)cc1 | > 40 µM (inactive) |
| CSc1ccccc1-c1nnc(-c2ccc(Cl)c(Cl)c2)o1 | 8.81 µM |
| Fc1cnc(N2CCc3ccccc32)nc1N1CCc2ccccc21 | 3.22 µM |
| COc1ccccc1NC(=O)COC(=O)c1ccc2c(c1)OCCO2 | 1.01 µM |
| O=C(Nc1nc(-c2cccs2)c(-c2cccs2)s1)C1CCCC1 | 2.86 µM |
| CCn1c(=O)cc(SCC(=O)Nc2ccc(Cl)cc2)c2ccccc21 | 5.59 µM |
| COc1ccc(-c2nc3c4ccccc4ccn3c2C=O)cc1 | inactive |
| COc1cc(OC)cc(-c2c(Sc3ccccc3)c3cc(-c4ccc(OC)c(F)c4)ccc3n2C)c1 | 1.33 µM |
| O=C(COc1nc2ccccc2nc1N1CCOCC1)N1CCc2ccccc21 | > 40 µM (inactive) |
| N#Cc1c(N)nc(SCC(=O)NCCc2ccccc2)c(C#N)c1-c1cccs1 | 1.31 µM |
| Cc1ccc(CSc2nc3ccncc3n2CC(=O)Nc2cc(C)cc(C)c2)cc1 | > 40 µM (inactive) |
| Cc1ccccc1C(=O)N=c1ccn(-c2nc3ccccc3nc2NS(=O)(=O)c2ccc(F)cc2)cc1 | 5.69 µM |
| COc1ccccc1N1N=C(C(=O)c2ccccc2)C2C(=O)N(c3ccc(Br)cc3)C(=O)C21 (centres undefined) | 8.96 µM |
| N#CC(C#N)=C1C=C2C=C(N3CCOCC3)CCC2CC1 (centres undefined) | 4.31 µM |
| Cc1cc(C)c(NC(=O)COc2ccccc2C(=O)Nc2ccc3c(c2)oc2ccccc23)c(C)c1 | > 40 µM (inactive) |
| CN1/C(=C\C=C2/C(=O)Oc3ccccc3C2=O)C(C)(C)c2ccccc21 | 4.74 µM |
| O=C(CSc1nnc(-c2ccncc2)n1-c1ccc(Cl)cc1)c1ccc(Cl)c(Cl)c1 | 0.278 µM |
| Cc1nc(NC(=O)c2cncc(Br)c2)ccc1Br | inactive |
| CCN(CC(=O)NCc1ccc(Cl)cc1)C(=O)c1ccc2cc(OC)ccc2c1 | 4.52 µM |
| C=CCN1C(=O)/C(=C\C=C2\N(C)c3ccccc3C2(C)C)SC1=S | inactive |
| Cc1nn2c(N)c(C#N)cnc2c1-c1ccc(Cl)cc1 | 6.12 µM |

| Structure (SMILES) | IC50 |
| --- | --- |
| CN1CCS/C1=C/C=C1/SC(=S)N(Cc2ccccc2)C1=O | inactive |
| CC(=O)c1cccc(NC(=O)c2csc(-n3nc(C)cc3C(F)(F)F)n2)c1 | 3.61 µM |
| Cc1ccc2c(n1)sc1c(-c3ccccc3)c(C#N)c(N)nc12 | inactive |
| COc1ccc2cc(C#N)c(Nc3cccc(F)c3)nc2c1 | 7.69 µM |
| CCN1C(=O)CSC1=NC1C2CC3CC(C2)CC1C3 (centres undefined) | 4.66 µM |
| CCCN1C(=O)c2cccc3c(N4CCCCC4)ccc(c23)C1=O | 8.14 µM |
| Cn1c(=O)c(NCCO)c2c3c(cccc31)C(=O)c1ccccc1-2 | 3.63 µM |
| O=C(Nc1ccc2c(c1)C(=O)NC2=O)c1cc(Cl)ccc1Cl | inactive |
| Cc1ccc(-n2c(O)c(/C=N/c3ncc(Br)cc3Br)c(=O)[nH]c2=O)cc1 | inactive |
| O=c1ccc2c(-c3ccccc3)c3ccc(O)cc3oc-2c1 | inactive |
| CCSc1nnc(NC(=O)c2cc3c(s2)CCCC3)s1 | 1.58 µM |
| Cn1c(=O)c(Nc2ccc(O)cc2)c2c3c(cccc31)C(=O)c1ccccc1-2 | 6.77 µM |
| COc1cc(C(=O)NCc2ccc(-c3nc4ccccc4s3)cc2)cc(OC)c1OC | > 40 µM (inactive) |
| O=C(NCc1cc(C(F)(F)F)ccc1Cl)c1cccc2c1C(=O)c1ccc(Cl)cc1S2(=O)=O | 4.22 µM |
| COc1ccc(S(=O)(=O)N2CCc3ccccc32)cc1C(=O)Nc1ccc(NC(C)=O)cc1 | 5.19 µM |
| Cc1cc(C)c2c(N)c(C(=O)N/N=C/c3cccs3)sc2n1 | 5.4 µM |
| COc1ccccc1NC(=O)c1sc(NC(=O)c2ccco2)c(C#N)c1C | 3.15 µM |
| O=C(NCc1cccc(F)c1)c1cccc2c1C(=O)c1ccc(N3CCOCC3)cc1S2(=O)=O | 3.69 µM |
| O=C(Nc1nnc(C2CCCCC2)s1)c1ccc(Br)s1 | inactive |
| COc1cc(OC)c(N(C)S(=O)(=O)c2cccc(C(=O)OCc3c(C)noc3C)c2)cc1Cl | 5.12 µM |
| CC(C)n1cc(/C=C/c2cc[n+](C)cc2)c2ccccc21 | inactive |
| c1cnc(SCC2CCCCC2)c(-c2nc3ccccc3[nH]2)c1 | 7.2 µM |
| Cc1nn(C)c(C)c1NC(=O)CSc1nc(-c2ccccc2Cl)nc2c1cnn2-c1ccccc1 | 0.879 µM |
| COc1nc(-c2ccc(Cl)cc2)ccc1-c1noc(-c2cccs2)n1 | inactive |
| CCNC(=O)Nc1ccc2c(c1)C(=O)N(C)[C@H]1CC[C@H](CC(=O)N[C@H](C)c3ccccc3)O[C@@H]1CO2 | inactive |
| COc1ccc2nc(SCC(=O)Nc3ccc(S(=O)(=O)N4CCCC4)cc3)c(C#N)cc2c1 | inactive |
